The text below walks through data of patent US20090048301A1 (IMCLONE SYSTEMS INCORPORATED, priority 2003, published 2009).

One test relates to bovine tubulin. The test is described as follows: In vitro tubulin polymerization assay (turbidity at 340 nm). The format is biochemical. Conditions: 10 μM compound, 30 minute data point, vs 1% DMSO control. An outline of the steps: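 Percent inhibition derives from turbidity (340 nm) at 30 min relative to 1% DMSO controls, read every minute at 37° C. Polymerization mix: 3 mg/ml bovine tubulin, <3% MAPs, in PIPES pH 7 G-PEM with 1 mM GTP, 1 mM MgCl2, 5% glycerol; enhancers also detectable.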

The subject of test [1] is A431, human epidermoid carcinoma cells. In words: Cell cycle analysis (FACS), mitotic arrest in G2/M. The format is cell-based. Conditions: Homo sapiens, A-431, 24 h, read-out: FACS Assay: concentration required to achieve inhibition in FACS assay. An outline of the steps: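 A431 cells, 500,000/well at treatment, exposed to compounds at 0.01–1 μM final (0.1% DMSO) for 24 h. Ethanol-fixed cells RNase-treated (1 μg/ml, 37° C., 15 min), stained with propidium iodide (50 μg/ml, 30 min, RT). DNA ploidy by flow cytometry; mitotic arrest scored as G2/M accumulation.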
(A flow cytometer gives signals particle by particle.)

Test [2] relates to A431 human cancer cell line. In words: Sulphorhodamine B (SRB) growth inhibition assay. Conditions: A-431, A431 cells, 48 hours, read-out: SRB Assay: μM required to inhibit tumor cell growth by 50% (GI50). The format is cell-based. As for the experimental part:
The in vitro growth inhibition activity of the compounds was determined by the Sulphorhodamine B assay. (Skehan P, Storeng R, Scudiero D, Monks A, McMahon J, Vistica D, Warren J T, Bokesch H, Kenney S, Boyd M R. New colorimetric cytotoxicity assay for anticancer-drug screening. J Natl Cancer Inst 82, 1107-1112, 1990). Sulphorhodamine B binds to basic amino acids and stains proteins which can be eluted and detected spectrophotometically by measuring absorbance at 515 nm. The absorbance was indicative of the total protein content of the cells fixed to the walls of the plate well at a given time by trichloroacetic acid, which is a measure of the viable cell concentration.
The in vitro growth inhibition activity of the compounds was determined using a Sulphorhodamine B assay. See, Skehan et al., “New colorimetric cytotoxicity assay for anticancer-drug screening,” J. Natl. Cancer Inst., 82, 1107-1112, (1990). Sulphorhodamine B binds to basic amino acids and stains proteins which can be eluted and detected spectrophotometically by measuring absorbance at 515 nm. The absorbance indicates the total protein content of the cells fixed to the walls of the plate well at a given time by trichloroacetic acid, which is a measure of the viable cell concentration.
The reagents used in the assay can be purchased from commercial sources and include Sulphorhodamine B 0.4% (w/v) in 1% (v/v) acetic acid (Sigma Cat#S-1402); trichloroacetic acid 50% (w/v) in deionized water, working solution (Sigma Cat#T-9159); and trizma base (Tris) 10 mM working solution, pH 7.5 (Sigma Cat#T-7693).
The procedure was cared out over four days. In Day 1, the cells were seeded in a seed 10,000 cells/100 μL/well in 96 well plate in duplicates as per template. Also, seed cells in extra plate for time zero (To plate). Thereafter, the cells were incubated for 24 hours at 37° C. with 5% CO2.
On Day 2, the test compound was added to the cells at five log doses from 100 μM to 0.01 μM (Volume of addition=100 μL in 1% DMSO for all compound concentrations, Control treatment=1% DMSO).
The compounds were prepared by weighing the test compounds in 1.5 ml eppendorf tubes and calculating the volume of DMSO to be added to bring the concentration of the compound to 20 mM. Thereafter, a 20 mM stock was made and diluted by four 10 fold dilutions in DMSO to get 2, 0.2, 0.02 and 0.002 mM solutions. Each solution was diluted 100 times (10 μL to 1 ml medium) and a further addition to the culture plate (100 μL) to half the concentration of cells was made. The final well concentration for 20 mM stock was 100 μM and similarly with other test concentrations.
The cells were incubated for 48 hours at 37° C. with 5% CO2 and terminated by adding 50 μL of 50% cold trichloroacetic acid (10% to final). Thereafter, the cells were incubated for one hour at 4° C.
On Day 4, the cells were fixed to the wells by the addition of 50 μL of 50% cold trichloroacetic acid (10% to final) and incubated for 1 hour at 4° C. The supernatant was discarded by force inverting the plate into the sink followed by washing thrice with tap water and the plates are then air-dried. 100 μL SRB (0.4% in 1% acetic acid) was added to each well and the plates were incubated for 10 minutes at room temperature. Unbound dye was removed by force inverting the plate into the sink and washing thrice with 1% acetic acid. Thereafter, the plates were allowed to air dry.
Bound SRB was solubilized with 100 μL of 10 mM Tris, pH 7.4 and the absorbance was measured at a wavelength of 515 nm.
A sample set of calculations was performed as follows. The percentage growth was calculated by T-To/C-To X 100 if T>To and T-To/To X 100 if T<To, wherein T is Test OD (with compound), C is Control OD, To is Time Zero OD (cell growth at the time of drug addition). […]

As a reminder, the GI50 is the concentration at which growth is held to half of that of the control. For `COc1cc(Nc2ncccc2-c2nnc(Nc3ccc4c(c3)OCO4)o2)cc(OC)c1` [Compound 177, {3-[5-(Benzo[1,3]dioxol-5-ylamino)-[1,3,4]oxadiazol-2-yl]-pyridin-2-yl}-(3,5-dimethoxy-phenyl)-amine], the “Tubulin Assay: percent inhibition at 10 μM based on 30 minute data” value (shortened to “Tubulin Assay: percent inhibition”) in the test with bovine tubulin is 45%. For the same molecule, the minimal effective concentration in test [1] was determined as 0.01 µM. The GI50 in test [2] is 0.04 µM.
As for `COc1cc(Nc2ncccc2-c2nnc(Nc3ccc4c(c3)OCO4)[nH]2)cc(OC)c1` [Compound 30, {3-[5-(Benzo[1,3]dioxol-5-ylamino)-4H-[1,2,4]triazol-3-yl]-pyridin-2-yl}-(3,5-dimethoxy-phenyl)-amine], in the test on bovine tubulin, the “Tubulin Assay: percent inhibition” value is listed as 87%. Also, the minimal effective concentration in test [1] is 0.1 µM. For the same molecule, in test [2], the GI50 worked out at 0.01 µM.
In the same order, the values of `CS(=O)(=O)c1ccc(-c2nnc(-c3cccnc3NCc3ccc4c(c3)OCO4)[nH]2)cc1` [Compound 77, Benzo[1,3]dioxol-5-ylmethyl-{3-[5-(4-methanesulfonyl-phenyl)-4H-[1,2,4]triazol-3-yl]-pyridin-2-yl}-amine] are 28%, 10 µM and 4.5 µM.
Regarding `COc1cccc(Nc2nnc(-c3cccnc3NCc3ccc4c(c3)OCO4)[nH]2)c1` [Compound 13, Benzo[1,3]dioxol-5-ylmethyl-{3-[5-(3-methoxy-phenylamino)-4H-[1,2,4]triazol-3-yl]-pyridin-2-yl}-amine], the “Tubulin Assay: percent inhibition” value with bovine tubulin came out at 80%. In addition, in test [1], the minimal effective concentration was 1 µM. Besides, the GI50 in test [2] was 2 µM.
For `COc1ccc(Nc2nnc(-c3cccnc3Nc3cc(OC)cc(OC)c3)[nH]2)cc1` [Compound 3, (3,5-Dimethoxy-phenyl)-{3-[5-(4-methoxy-phenylamino)-4H-[1,2,4]triazol-3-yl]-pyridin-2-yl}-amine], in the test with bovine tubulin, the “Tubulin Assay: percent inhibition” value stood at 72%. Further, the minimal effective concentration in test [1] stood at 10 µM. Besides, the GI50 in test [2] turned out to be 2.5 µM.
Turning to `COc1cc(Nc2ncccc2-c2nnc(Nc3ccc(N(C)C)cc3)[nH]2)cc(OC)c1` [Compound 6, (3,5-Dimethoxy-phenyl)-{3-[5-(4-dimethylamino-phenylamino)-4H-[1,2,4]triazol-3-yl]-pyridin-2-yl}-amine], the “Tubulin Assay: percent inhibition” value in the test on bovine tubulin was determined as 35%. Besides, the minimal effective concentration in test [1] came out at 10 µM. In test [2], the 50% growth inhibitory concentration (GI50) worked out at 20 µM.
`COc1cccc(Nc2nnc(-c3cccnc3Nc3ccc4cn[nH]c4c3)[nH]2)c1` [Compound 18, (1H-Indazol-6-yl)-{3-[5-(3-methoxy-phenylamino)-4H-[1,2,4]triazol-3-yl]-pyridin-2-yl}-amine]: the “Tubulin Assay: percent inhibition” value in the test with bovine tubulin was 70%. Besides, the minimal effective concentration in test [1] worked out at 1 µM. For the same molecule, the GI50 in test [2] came to 1.5 µM.
In the same order, the values of `COc1cc(CNc2ncccc2-c2nnc(Nc3ccc(OC)c(OC)c3)o2)cc(OC)c1` [Compound 183, (3,5-Dimethoxy-benzyl)-{3-[5-(3,4-dimethoxy-phenylamino)-[1,3,4]oxadiazol-2-yl]-pyridin-2-yl}-amine] are 50%, 0.1 µM and 6 µM.
On to `C#Cc1ccc(-c2nnc(-c3ccccc3NCc3ccncc3)[nH]2)cc1` [Compound 131, {2-[5-(4-Ethynyl-phenyl)-4H-[1,2,4]triazol-3-yl]-phenyl}-pyridin-4-ylmethyl-amine], for which the “Tubulin Assay: percent inhibition” value with bovine tubulin is 46%. Besides, the minimal effective concentration in test [1] worked out at 0.1 µM. Also, the GI50 in test [2] is 0.06 µM.
With `COc1cccc(Nc2nnc(-c3ccccc3NCc3ccncc3)[nH]2)c1` [Compound 115, (3-Methoxy-phenyl)-(5-{2-[(pyridin-4-ylmethyl)-amino]-phenyl}-4H-[1,2,4]triazol-3-yl)-amine], the “Tubulin Assay: percent inhibition” value in the test with bovine tubulin came to 79%. Besides, in test [1], the minimal effective concentration stood at 1 µM. The GI50 in test [2] was found to be 1.5 µM.
In the case of `COc1cccc(Nc2nnc(-c3cccnc3Nc3cc(OC)cc(OC)c3)o2)c1` [Compound 176, (3,5-Dimethoxy-phenyl)-{3-[5-(3-methoxy-phenylamino)-[1,3,4]oxadiazol-2-yl]-pyridin-2-yl}-amine], in the test on bovine tubulin, the “Tubulin Assay: percent inhibition” value is 27%. For the same molecule, the minimal effective concentration in test [1] was 10 µM. The GI50 in test [2] worked out at 40 µM.
With `COc1cccc(-c2nnc(-c3cccnc3NCc3cccnc3)[nH]2)c1` [Compound 85, {3-[5-(3-Methoxy-phenyl)-4H-[1,2,4]triazol-3-yl]-pyridin-2-yl}-pyridin-3-ylmethyl-amine], the “Tubulin Assay: percent inhibition” value in the test with bovine tubulin was determined as 61%. Moreover, the minimal effective concentration in test [1] stood at 1 µM. Also, the GI50 in test [2] turned out to be 8 µM.
Regarding `COc1ccc(Nc2nnc(-c3cccnc3NCc3ccc4c(c3)OCO4)[nH]2)cc1` [Compound 54, Benzo[1,3]dioxol-5-ylmethyl-{3-[5-(4-methoxy-phenylamino)-4H-[1,2,4]triazol-3-yl]-pyridin-2-yl}-amine], the “Tubulin Assay: percent inhibition” value with bovine tubulin is on record as 38%. In test [1], the minimal effective concentration was found to be 10 µM. Besides, the GI50 in test [2] turned out to be 7.5 µM.
As for `COc1cc(Nc2nnc(-c3cccnc3Nc3cc(OC)cc(OC)c3)[nH]2)cc(OC)c1` [Compound 1, (3,5-Dimethoxy-phenyl)-{3-[5-(3,5-dimethoxy-phenylamino)-4H-[1,2,4]triazol-3-yl]-pyridin-2-yl}-amine], in the test on bovine tubulin, the “Tubulin Assay: percent inhibition” value is recorded as 45%. In addition, in test [1], the minimal effective concentration was found to be 0.1 µM. Besides, the GI50 in test [2] is 5.5 µM.
Turning to `COc1ccc(-c2nnc(-c3cccnc3NCc3cccnc3)[nH]2)cc1OC` [Compound 88, {3-[5-(3,4-Dimethoxy-phenyl)-4H-[1,2,4]triazol-3-yl]-pyridin-2-yl}-pyridin-3-ylmethyl-amine], in the test on bovine tubulin, the “Tubulin Assay: percent inhibition” value amounted to 29%. The minimal effective concentration in test [1] stood at 10 µM. Moreover, the GI50 in test [2] came out at 1.2 µM.
Consider `c1cncc(CNc2ncccc2-c2nnc(Nc3ccc4c(c3)OCO4)o2)c1` [Compound 189, {3-[5-(Benzo[1,3]dioxol-5-ylamino)-[1,3,4]oxadiazol-2-yl]-pyridin-2-yl}-pyridin-3-ylmethyl-amine], for which the “Tubulin Assay: percent inhibition” value in the test on bovine tubulin was found to be 89%. The minimal effective concentration in test [1] is 0.1 µM. Moreover, the GI50 in test [2] was 0.6 µM.
Take `COc1ccc(OC)c(Nc2nnc(-c3cccnc3NCc3ccc4c(c3)OCO4)[nH]2)c1` [Compound 14, Benzo[1,3]dioxol-5-ylmethyl-{3-[5-(2,5-dimethoxy-phenylamino)-4H-[1,2,4]triazol-3-yl]-pyridin-2-yl}-amine]: the “Tubulin Assay: percent inhibition” value with bovine tubulin worked out at 24%. In test [1], the minimal effective concentration turned out to be 100 µM. Moreover, in test [2], the GI50 stood at 20 µM.
